In series [1] the test system is pulmonary neutrophil infiltration. Briefly: Inhibition of lipopolysaccharide (LPS)-induced pulmonary neutrophilia in Lewis rats. The format is in vivo. The settings on record: 2 h prior to LPS provocation, BAL 6 h after provocation. The method, then:
The ability of the substances according to the invention to inhibit pulmonary neutrophil infiltration is examined in male Lewis rats (200-350 g). On the day of the experiment, the animals are placed individually in open 1 l Plexiglass boxes which are connected to a head/nose exposure appliance. The animals are exposed to an aerosol consisting of a suspension of lipopolysaccharide (100 μg of LPS/ml of 0.1% hydroxylamine solution) in PBS (LPS provocation). The LPS/hydroxylamine aerosol is generated using a compressed air (0.2 MPa)-driven nebulizer (Bird micro nebulizer, Palm Springs Calif., USA). The exposure time is 40 minutes, with normal controls likewise being nebulized for 40 minutes with an aerosol consisting of a 0.1% solution of hydroxylamine in PBS.
6 hours after the LPS provocation, there is a maximal and massive immigration of neutrophilic granulocytes into the lungs of the animals. At this time, the animals are anaesthetized with an overdose of ethylurethane (1.5 g/kg of body weight, given i.p.) and a bronchoalveolar lavage (BAL) is carried out using 3×4 ml of Hank's balance solution. The total cell count, and the number of neutrophilic granulocytes, in the pooled BAL liquid are then determined using an automatic haemocytometer (Bayer Diagnostics Technicon H1E). In the case of each animal, the neutrophils (NEUTRO) in the BAL are calculated in 10^6/animal: NEUTRO/μl×BAL recovery (ml)=NEUTRO/animal.
Two control groups (nebulization with a 0.1% hydroxylamine solution in PBS and nebulization with 100 μg of LPS/ml of 0.1% hydroxylamine solution in PBS) are included in each test. The percentage inhibition of the neutrophilia in the substance-treated experimental group is calculated using the following formula: {((LPSC−SC)−(LPSD−SC))/(LPSC−SC)}×100%=% inhibition
SC=control group treated with vehicle and challenged with 0.1% hydroxylamine solution; LPSC=control group treated with vehicle and challenged with LPS (100 μg/ml of 0.1% hydroxylamine solution); LPSD=experimental group treated with substance and challenged with LPS (100 μg/ml of 0.1% hydroxylamine solution)
The test substances are administered 2 hours prior to the LPS provocation, as a suspension in 10% polyethylene glycol 300 and 0.5% 5-hydroxyethyl cellulose orally or per inhalation as a mixture with lactose. The control groups are treated with the vehicle in accordance with the mode of administration used for the test substance.

In series [2] the target is PDE 4. Briefly: Inhibition of phosphodiesterase 4 (SPA assay, enzyme preparation from human PMNLs). The series is classed as biochemical. The settings on record: cytosolic PDE 4 fraction from human PMNLs; 0.5 μM [3H]-cAMP; 100 μM cGMP. The method, then: The PDE 4 activity is determined using enzyme preparations from human […] (PMNLs). Human blood (buffy coats) was anticoagulated with citrate. The platelet-rich plasma in the supernatant is separated from the erythrocytes and leucocytes by centrifuging at 700 […]g for 20 minutes at room temperature (RT). The PMNLs for the PDE 4 determination are isolated by means of a subsequent dextran sedimentation followed by a gradient centrifugation using Ficoll-Paque. After the cells have been washed twice, the erythrocytes which are still present are lysed within 6 minutes by adding 10 ml of hypotonic buffer (155 mM NH4Cl, 10 mM NaHCO3, 0.1 mM EDTA, pH=7.4) at 4° C. The PMNLs, which are still intact, are washed a further two times with PBS and lysed by ultrasonication. The supernatant obtained after centrifuging at 48 000×g at 4° C. for one hour contains the cytosolic PDE 4 fraction and is used for the PDE 4 measurements.
The phosphodiesterase activity is measured using a modified Amersham Pharmacia Biotech method, i.e. an SPA (scintillation proximity assay) assay. The reaction mixtures contain buffer (50 mM tris-HCl (pH 7.4), 5 mM MgCl2, 100 μM cGMP), varying concentrations of the inhibitors, and the corresponding enzyme preparation. The reaction is started by adding the substrate, i.e. 0.5 μM [3H]-cAMP. The final volume is 100 μl. Test substances are prepared as stock solutions in DMSO. The concentration of DMSO in the reaction mixture is 1% v/v. This DMSO concentration has no effect on PDE activity. After the reaction has been started by adding the substrate, the samples are incubated at 37° C. for 30 minutes. The reaction is stopped by adding a defined quantity of SPA beads and the samples are measured in a beta counter after one hour. The nonspecific enzyme activity (i.e. the blank) is determined in the presence of 100 μM rolipram and subtracted from the test values. The incubation mixtures for the PDE 4 assay contain 100 μM cGMP in order to inhibit any contamination of PDE 3 which may be present.

The subject of series [3] is pulmonary eosinophil infiltration. Briefly: Inhibition of late-phase eosinophilia 48 h after inhalative ovalbumin challenge in actively sensitized Brown Norway rats. The series is classed as in vivo. The settings on record: 2 h prior to allergen challenge, BAL 48 h after challenge. The method, then:
The inhibition exerted by the substances according to the invention on pulmonary eosinophil infiltration is examined in male Brown Norway rats (200-250 g) which have been actively sensitized against ovalbumin (OVA). The sensitization is effected by subcutaneously injecting a suspension of 10 μg of OVA, together with 20 mg of aluminium hydroxide as adjuvant, in 0.5 ml of physiological sodium chloride solution per animal on days 1, 14 and 21. In addition to this, each of the animals is injected at the same time with 0.25 ml of Bordetalla pertussis vaccine dilution i.p. On the 28th day of the experiment, the animals are placed individually in open 11 Plexiglass boxes which are connected to a head/nose exposure appliance. The animals are exposed to an aerosol consisting of a 1.0% suspension of ovalbumin (Allergen Challenge). The ovalbumin aerosol is generated using a compressed air (0.2 MPa)-driven nebulizer (Bird micro nebulizer, Palm Springs Calif., USA). The exposure time is 1 hour, with normal controls likewise being nebulized for 1 hour with an aerosol consisting of a 0.9% solution of sodium chloride.
48 hours after the allergen challenge, there is a massive immigration of eosinophilic granulocytes into the lungs of the animals. At this time, the animals are anaesthetized with an overdose of ethylurethane (1.5 g/kg of body weight, given i.p.) and a bronchoalveolar lavage (BAL) is carried out using 3×4 ml of Hank's balance solution. The total cell count, and the number of eosinophilic granulocytes, in the pooled BAL liquid are then determined using an automatic haemocytometer (Bayer Diagnostics Technicon H1E). For each animal, the eosinophils (EOS) in the BAL are calculated in 10^6/animal: EOS/μl×BAL recovery (ml)=EOS/animal. Two control groups (nebulization with physiological sodium chloride solution and nebulization with OVA solution) are included in each test.
The percentage inhibition of the eosinophilia in the substance-treated experimental group is calculated using the following formula: {((OVAC−SC)−(OVAD−SC))/(OVAC−SC)}×100%=% inhibition
(SC=control group treated with vehicle and challenged with 0.9% sodium chloride solution; OVAC=control group treated with vehicle and challenged with 1% of ovalbumin suspension; OVAD=experimental group treated with substance and challenged with 1% of ovalbumin suspension)
The test substances are administered 2 hours prior to the allergen challenge intraperitoneally or orally as a suspension in 10% polyethylene glycol 300 and 0.5% 5-hydroxyethyl cellulose or per inhalation as a mixture with lactose. The control groups are treated with the vehicle in accordance with the manner in which the test substance is administered.

We go through 9 molecules from patent US20060293362A1, “Nitro-substituted hydroxyindoles, their use as inhibitors of phosphodiesterase 4, and processes for preparing them” (priority 2005, published 2006).

The term IC50 denotes the concentration needed to halve the response being measured. Higher therefore signals weaker potency. Broadly, the melting point is the temperature of the solid-liquid transition.

The structures appear in SMILES notation.

Turning to `O=C(Nc1c(Cl)cncc1Cl)C(=O)c1cn(Cc2cccc([N+](=O)[O-])c2)c2c(O)cccc12` [Comparative Compound A], the values for the Inhibition of neutrophilia result in series [1] (0.1 mg/kg i.t.) and in series [1] (1 mg/kg p.o.) were “no effect” and 39%, respectively. The molecule further yielded an IC50 in series [2] of 2 nM. Further, the Inhibition of eosinophilia result in series [3] (0.1 mg/kg i.t.) was “no effect”; in series [3] (10 mg/kg i.p.) it was 33%; in series [3] (30 mg/kg p.o.), 31%.
As to `O=C(Nc1c(Cl)cncc1Cl)C(=O)c1cn(Cc2c(F)cccc2F)c2c(O)cccc12` [Comparative Compound B, N-(3,5-dichloropyridin-4-yl)[1-(2,6-difluorobenzyl)-7-hydroxyindol-3-yl] glyoxylic acid amide], the Inhibition of neutrophilia entry in series [1] (0.01 mg/kg i.t.) is “no effect”; in series [1] (0.1 mg/kg i.t.), 38%; in series [1] (1 mg/kg p.o.), 31%. Besides, in series [2], the midpoint of inhibition, the IC50, lay at 2 nM. The Inhibition of eosinophilia entry in series [3] (0.01 mg/kg i.t.) is listed as “no effect”; in series [3] (0.1 mg/kg i.t.), 35%; in series [3] (10 mg/kg i.p.) it was 38%; in series [3] (30 mg/kg p.o.), 30%.
As to `O=C(Nc1c(Cl)cncc1Cl)C(=O)c1cn(Cc2ccccc2Cl)c2c(O)cccc12` [Comparative Compound C, (N-3,5-dichloropyridin-4-yl)[1-(2-chlorobenzyl)-7-hydroxyindol-3-yl] glyoxylic acid amide], the Inhibition of neutrophilia result in series [1] (0.01 mg/kg i.t.) is recorded as “no effect”; in series [1] (0.1 mg/kg i.t.) it was 31%; in series [1] (1 mg/kg p.o.) it was 34%. This molecule yielded an IC50 in series [2] of 0.6 nM. The Inhibition of eosinophilia entry in series [3] (0.01 mg/kg i.t.) is “no effect”; in series [3] (0.1 mg/kg i.t.), 62%; in series [3] (10 mg/kg i.p.), 30%; in series [3] (30 mg/kg p.o.), 32%.
For `O=C(Nc1c(Cl)cncc1Cl)C(=O)c1cn(Cc2ccc(Cl)cc2[N+](=O)[O-])c2c(O)cccc12` [Compound 1, N-(3,5-dichloropyrdin-4-yl)-[1-(4-chloro-2-nitrobenzyl)-7-hydroxyindol-3-yl]glyoxylic acid amide], the Inhibition of neutrophilia is recorded as 51% in series [1] (0.001 mg/kg i.t.) and 49% in series [1] (1 mg/kg p.o.). Also, the IC50 in series [2] came out at 0.9 nM. The Inhibition of eosinophilia amounted to 55% in series [3] (0.001 mg/kg i.t.), 57% in series [3] (10 mg/kg i.p.) and 51% in series [3] (30 mg/kg p.o.).
For the molecule `O=C(Nc1c(Cl)cncc1Cl)C(=O)c1cn(Cc2c(F)cccc2[N+](=O)[O-])c2c(O)cccc12` [Compound 2, N-(3,5-dichloropyridine-4-yl)[1-(6-fluoro-2-nitrobenzyl)-7-hydroxyindole-3-yl)glyoxylic acid amide], the melting point is 308 to 310 °C. Besides, the midpoint of inhibition in series [2], the IC50, lay at 0.6 nM.
`Cc1ccc(Cn2cc(C(=O)C(=O)Nc3c(Cl)cncc3Cl)c3cccc(O)c32)cc1[N+](=O)[O-]` [Compound 3, N-(3,5-dichloropyridine-4-yl)-[7-hydroxy-1-(4-methyl-3-nitrobenzyl)-indol-3-yl]-glyoxylic acid amide] returned an IC50 in series [2] of 8 nM.
For `Cc1c(Cn2cc(C(=O)C(=O)Nc3c(Cl)cncc3Cl)c3cccc(O)c32)cccc1[N+](=O)[O-]` [Compound 4, N-(3,5-dichloropyridine-4-yl)-[7-hydroxy-1-(2-methyl-3-nitrobenzyl)-indol-3-yl]-glyoxylic acid amide], the melting point was 229 to 232 °C (dec.). In series [2], this molecule gave an IC50 of 2 nM.
With `Cc1ccc([N+](=O)[O-])c(Cn2cc(C(=O)C(=O)Nc3c(Cl)cncc3Cl)c3cccc(O)c32)c1` [Compound 5, N-(3,5-dichloropyridine-4-yl)-[7-hydroxy-1-(5-methyl-2-nitrobenzyl)-indol-3-yl]-glyoxylic acid amide], the melting point is 297 to 300 °C (dec.). In addition, the IC50 in series [2] turned out to be 38 nM.
Consider `O=C(Nc1c(Cl)c[n+]([O-])cc1Cl)C(=O)c1cn(Cc2ccc(Cl)cc2[N+](=O)[O-])c2c(O)cccc12` [Compound 6, N-(3,5-dichloro-1-oxo-pyridine-4-yl)-[1-(4-chloro-2-nitrobenzyl)-7-hydroxyindol-3-yl]-glyoxylic acid amide], for which the IC50 in series [2] is 4 nM.
